Laboratory results: the CheMixHub viscosity set
± gives the uncertainty stated by the source.

Test: xn = mol fraction of the nth substance listed
Conditions: 101 kPa

Oc1ccccc1Cl + COCCO
viscosity [mPa·s]
Conditions | x1 = 0.0797 | x1 = 0.163 | x1 = 0.2503 | x1 = 0.3418 | x1 = 0.4379 | x1 = 0.5388 | x1 = 0.6451 | x1 = 0.757 | x1 = 0.8752
303.15 K | 1.925 ± 0.045 | 2.342 ± 0.053 | 2.78 ± 0.063 | 3.204 ± 0.072 | 3.56 ± 0.079 | 3.811 ± 0.084 | 3.884 ± 0.086 | 3.735 ± 0.083 | 3.376 ± 0.075
308.15 K | 1.81 ± 0.042 | 2.126 ± 0.049 | 2.456 ± 0.056 | 2.776 ± 0.063 | 3.04 ± 0.068 | 3.212 ± 0.072 | 3.268 ± 0.073 | 3.166 ± 0.071 | 2.898 ± 0.065
313.15 K | 1.479 ± 0.035 | 1.762 ± 0.041 | 2.055 ± 0.047 | 2.335 ± 0.053 | 2.586 ± 0.059 | 2.765 ± 0.062 | 2.842 ± 0.064 | 2.785 ± 0.063 | 2.593 ± 0.059
318.15 K | 1.34 ± 0.032 | 1.572 ± 0.037 | 1.805 ± 0.042 | 2.03 ± 0.047 | 2.227 ± 0.051 | 2.37 ± 0.054 | 2.445 ± 0.056 | 2.419 ± 0.055 | 2.282 ± 0.052

CCCN + COCCOC
298.15 K
Conditions | viscosity [mPa·s]
x1 = 0.0189 | 0.415 ± 0.007
x2 = 0.0057 | 0.356 ± 0.007
x2 = 0.0115 | 0.357 ± 0.007
x2 = 0.032 | 0.358 ± 0.007
x2 = 0.0568 | 0.36 ± 0.007
x2 = 0.0815 | 0.362 ± 0.007
x2 = 0.1075 | 0.364 ± 0.007
x2 = 0.1552 | 0.368 ± 0.007
x2 = 0.1871 | 0.369 ± 0.007
x2 = 0.2467 | 0.372 ± 0.007
x2 = 0.2882 | 0.373 ± 0.007
x2 = 0.3386 | 0.374 ± 0.007
x2 = 0.3526 | 0.374 ± 0.007
x2 = 0.3761 | 0.374 ± 0.007
x2 = 0.4134 | 0.375 ± 0.007
x2 = 0.4707 | 0.378 ± 0.007
x2 = 0.5131 | 0.38 ± 0.007
x2 = 0.5662 | 0.381 ± 0.007
x2 = 0.6099 | 0.383 ± 0.007
x2 = 0.6466 | 0.386 ± 0.007
x2 = 0.7017 | 0.39 ± 0.007
x2 = 0.74 | 0.392 ± 0.007
x2 = 0.8022 | 0.397 ± 0.007
x2 = 0.833 | 0.399 ± 0.007
x2 = 0.8785 | 0.403 ± 0.007
x2 = 0.9167 | 0.408 ± 0.007
x2 = 0.9436 | 0.411 ± 0.007

CCCN + COCCOCCO
298.15 K
Conditions | viscosity [mPa·s]
x2 = 0.0255 | 0.399 ± 0.007
x2 = 0.0563 | 0.444 ± 0.007
x2 = 0.0879 | 0.493 ± 0.007
x2 = 0.1249 | 0.562 ± 0.008
x2 = 0.1605 | 0.634 ± 0.008
x2 = 0.2036 | 0.735 ± 0.008
x2 = 0.2453 | 0.842 ± 0.009
x2 = 0.2996 | 1.01 ± 0.01
x2 = 0.3405 | 1.159 ± 0.011
x2 = 0.3854 | 1.334 ± 0.012
x2 = 0.4144 | 1.455 ± 0.012
x2 = 0.4488 | 1.601 ± 0.013
x2 = 0.4769 | 1.726 ± 0.014
x2 = 0.5252 | 1.953 ± 0.015
x2 = 0.5736 | 2.163 ± 0.017
x2 = 0.6235 | 2.386 ± 0.018
x2 = 0.6581 | 2.523 ± 0.019
x2 = 0.7072 | 2.718 ± 0.021
x2 = 0.7563 | 2.892 ± 0.022
x2 = 0.7974 | 3.02 ± 0.023
x2 = 0.8476 | 3.165 ± 0.024
x2 = 0.8779 | 3.225 ± 0.024
x2 = 0.9088 | 3.297 ± 0.025
x2 = 0.9387 | 3.351 ± 0.025
x2 = 0.9526 | 3.375 ± 0.025
